Data reported in patent US20260069671A1, “MICELLE COMPRISING AMPHIPHILIC PEPTIDE, AND ANTIGEN CARRIER NANOPARTICLE USING SAME” (RTAB CO., LTD., priority 2022, published 2026).

Tests used:
BALB/c mice [1] = test: Antibody detection by dot blot in serum of immunized mice; assay type: in vivo, mouse; settings: serum of day 35, serially diluted recombinant protein, FIG. 10
Method: (§1) Female BALB/C mice were purchased from Nara Biotech, Seoul, Korea, were 6 weeks old, and were bred under pathogen-free conditions. This study was conducted in accordance with the strict guidelines for the care and use of laboratory animals of the National Institutes of Health. The protocol was approved by the Animal Care Committee of Hanyang University Animal Hospital. For immunization, nanoparticles were emulsified with aluminum hydroxide (20 mg/100 μL, Sigma-Aldrich, St Louis, MO, USA). The mice were injected with 150 μg carrier dissolved in 150 μL phosphate buffered saline (PBS). The mice were injected with 50 μg hapten dissolved in 150 μL PBS. The mice were injected with 3:1 (w/w) nanoparticles (150 μg carrier and 50 μg hapten) combined with 150 μL PBS and 40 mg aluminum hydroxide. […] Serum was collected from centrifuged blood and frozen at −20° C. until being analyzed by ELSIA. […] Serum was collected from centrifuged blood and frozen at −20° C. until being analyzed by dot blot. […]
For determination of nanoparticle (or hapten peptide)-specific antibodies, serial dilutions of the recombinant protein were seeded on PVDF membranes at a concentration of 1.2 μg/μL to 12 ng/μL. […] Afterwards, the enhanced chemiluminescence solution (ECL) was treated with a membrane and directly analyzed with chemiscope 3400 (CLINX, China). […]

[2] = Nanoparticle size measurement with Zetasizer Nano ZS; assay type: physicochemical; settings: diluted in ultrapure water, room temperature, triplicate mean +/- standard deviation
Method: Recombinant amphiphilic peptides and hapten peptides were produced and provided by Anygen in Gwangju, Korea. In order to prepare nanoparticles (particulate soluble hapten) using amphiphilic peptides, amphiphilic peptides (peptides of SEQ ID NOs: 1 to 4, respectively) were dissolved in distilled water at a concentration of 4 mg/mL. Then, hapten peptides (peptides of SEQ ID NOs: 5 to 11, respectively) were dissolved in distilled water at a concentration of 0.5 mg/mL. Afterwards, a fixed amount of hapten (50 μg) was mixed with two different amounts of amphiphilic peptide at a ratio of 3:1 and 1:3 (w/w) and incubated for 30 minutes at room temperature (25° C.).
In order to characterize the sizes of amphiphilic peptides and nanoparticles, the diameters of micelles and nanoparticles formed by amphiphilic peptides (carriers) were measured with a Zetasizer Nano ZS system (Malvern Instruments, Malvern, UK). After digestion, the micelle stock solution was added to the cuvette. After 30-minute incubation, nanoparticles were diluted to a final volume of 1 mL. The average size was then analyzed with Dispersion Technology software 4.3. Nanoparticles were diluted using ultrapure water (refractive index 1.33, viscosity 0.89) and used for analysis at room temperature. Observations were presented as triplicate means +/−standard deviation.

[3] = test system: CD19 positive B cells reacting with DDOST protein labeled with Alexa 647; test: Live cell flow cytometry of hapten-specific B cells in splenocytes of immunized mice; assay type: in vivo, mouse; settings: FIG. 11
Method: as §1, with “hydroxide. The mice were injected with 1:3 (w/w) nanoparticles (16.67 μg carrier and 50 μg hapten) combined with 150 μL PBS and 40 mg aluminum hydroxide.” for “hydroxide.”
(§2) In order to identify nanoparticle (or hapten peptide)-specific lymphocyte populations, live cell flow cytometry was performed. […] After rinsing, the cells were filtered through a 40 μm cell strainer and counted. […]

BALB/c mice [4] = test: ELISA of hapten peptide-specific IgG/IgM in blood of immunized mice; assay type: in vivo, mouse; settings: FIG. 6
Method: Female BALB/C mice were purchased from Nara Biotech, Seoul, Korea, were 6 weeks old, and were bred under pathogen-free conditions. This study was conducted in accordance with the strict guidelines for the care and use of laboratory animals of the National Institutes of Health. The protocol was approved by the Animal Care Committee of Hanyang University Animal Hospital. For immunization, nanoparticles were emulsified with aluminum hydroxide (20 mg/100 μL, Sigma-Aldrich, St Louis, MO, USA). The mice were injected with 150 μg carrier dissolved in 150 μL phosphate buffered saline (PBS). The mice were injected with 50 μg hapten dissolved in 150 μL PBS. The mice were injected with 3:1 (w/w) nanoparticles (150 μg carrier and 50 μg hapten) combined with 150 μL PBS and 40 mg aluminum hydroxide. The mice were injected with 1:3 (w/w) nanoparticles (16.67 μg carrier and 50 μg hapten) combined with 150 μL PBS and 40 mg aluminum hydroxide. All groups were injected by intraperitoneal route and again on day 21. Blood was collected through the jugular vein twice a week and centrifuged at 2,000 g for 20 minutes. Serum was collected from centrifuged blood and frozen at −20° C. until being analyzed by ELSIA. The mice were sacrificed on day 35. Whole blood was collected and centrifuged at 2,000 g for 20 minutes. Serum was collected from centrifuged blood and frozen at −20° C. until being analyzed by dot blot. […]

[5] = test system: hapten and CD8 specific T cells; test: Live cell flow cytometry of hapten-specific cytotoxic T cells in splenocytes of immunized mice; assay type: in vivo, mouse
Method: as §1, with “hydroxide. The mice were injected with 1:3 (w/w) nanoparticles (16.67 μg carrier and 50 μg hapten) combined with 150 μL PBS and 40 mg aluminum hydroxide.” for “hydroxide.”
as §2

mice = test: Comparison of antibodies induced by nanoparticles and by the KLH conjugate method (FIG. 7); assay type: in vivo, mouse; settings: compared with keyhole limpet hemocyanin method
Method: In addition, when the antibodies identified by Western blot were pre-reacted with the incomplete water-soluble antigen (lower panel of FIG. 7), all bands disappeared, confirming that all antibodies that were produced were specifically generated against the incomplete water-soluble antigen. After completion of the experiment, the spleens of the used animals were removed, splenocytes were isolated, and the analysis of B cells and T cells was performed through flow cytometry.

Substance	hapten peptide-specific IgG dots (dot blot) (BALB/c mice [1])	Z-ave [2]	change in ratio of B cells responding to the target protein [3]	hapten-specific B cells, lower gating group ([3]; splenocytes day 35, Alexa 647 positive channel)	expression of hapten peptide-specific IgG and IgM antibodies in mouse blood (BALB/c mice [4])	change in proportion of CD8 T cells reacting to the target protein ([5]; FIG. 12)	hapten and CD8 specific T cells, lower gating group ([5]; splenocytes day 35, FIG. 12)	antibody production (FIG. 7, top panel) (mice)
RRRVVVVVV (micelle self-assembly) [Carrier, amphiphilic peptide of three arginines and six valines forming micelles by self-assembly]	no concentrated dots	193.8 ± 97.3 nm·days	no significant change	15.1%	no significant increase	did not show significant changes	0.78%	
keyhole limpet hemocyanin								antibodies were produced
